Measurements as given in patent publication US8372967B2, “Compounds and methods for modulating expression of GCCR” (Isis Pharmaceuticals, Inc., priority 2006, dated 2013).
Strand notation (5' to 3'): a small letter for the sugar, then the base; units joined by * are phosphorothioate-linked, units joined directly phosphodiester-linked; [ ] holds rarer units or linkages, { } end groups; capitals alone tell only the bases. e = 2'-O-(2-methoxyethyl) (MOE); [5mC] = 5-methylcytosine; d = 2'-deoxy (DNA)

Tests used:
[1] = system: PCSK9 mRNA; format: cell-based, human; details: Hep3B cells, 100 nM, relative to untreated control cells; for % Inhib: 0 = no reduction observed
Experimental: (§1) When cells reached appropriate confluency, they were treated with oligonucleotide using LIPOFECTIN® as described. […] Cells were treated and data were obtained in duplicate or triplicate. […] Cells were harvested 16-24 hours after oligonucleotide treatment.
Prior to quantitative PCR analysis, primer-probe sets specific to the target gene being measured were evaluated for their ability to be “multiplexed” with a GAPDH amplification reaction. After isolation the RNA is subjected to sequential reverse transcriptase (RT) reaction and real-time PCR, both of which are performed in the same well. RT and PCR reagents were obtained from Invitrogen Life Technologies (Carlsbad, Calif.). […] The RT reaction was carried out by incubation for 30 minutes at 48° C. Following a 10 minute incubation at 95° C. to activate the PLATIN 9M® Taq, 40 cycles of a two-step PCR protocol were carried out: 95° C. for 15 seconds (denaturation) followed by 60° C. for 1.5 minutes (annealing/extension).
170 μL of RiboGreen® working reagent (RiboGreen® reagent diluted 1:350 in 10 mM Tris-HCl, 1 mM EDTA, pH 7.5) was pipetted into a 96-well plate containing 30 μL purified cellular RNA. The plate was read in a CytoFluor® 4000 (PE Applied Biosystems) with excitation at 485 nm and emission at 530 nm.
Short antisense compounds targeted to a PCSK9 nucleic acid were tested for their effects on PCSK9 mRNA in vitro. The Isis No, gapmer motif and SEQ ID NO of each short antisense compound are shown again in Table 75. Cultured Hep3B cells were treated with 100 nM of short antisense compound. 5-10-5 MOE gapmers targeted to a PCSK9 nucleic acid were used as positive controls. After the treatment period, RNA was isolated from the cells and PCSK9 mRNA levels were measured by quantitative real-time PCR, as described herein. PCSK9 mRNA levels were adjusted according to total RNA content as measured by RIBOGREEN®. Results are presented in Table 75 as percent inhibition of PCSK9 (% Inhib), relative to untreated control cells.

[2] = system: PCSK9 mRNA; experiment: Dose-dependent antisense inhibition of PCSK9 in Hep3B cells, EC50 (Table 76); format: cell-based, human
Experimental: as §1
Short antisense compounds targeted to a PCSK9 nucleic acid were tested in a dose response experiment Hep3B cells. After the treatment period, RNA was isolated from the cells and PCSK9 mRNA levels were measured by quantitative real-time PCR, as described herein. PCSK9 mRNA levels were normalized to cyclophilin mRNA levels, as measured by real-time PCR using a cyclophilin-specific primer probe set. Results are presented as percent inhibition of PCSK9, relative to untreated control cells. […] As illustrated in the following table, PCSK9 mRNA levels were reduced in a dose-dependent manner.

[3] = system: SGLT2 mRNA; experiment: SGLT2 mRNA in kidney of Balb/c mice, twenty 1-10-1 MOE gapmers, PPS 534 and PPS 553 (Table 74); format: in vivo, mouse; details: i.p. 350 nmol/kg twice per week for two weeks
Experimental: Twenty 1-10-1 MOE gapmers that are complementary to human/monkey/mouse/rat SGLT2 were designed, synthesized and tested in vivo for suppression of SGLT2 mRNA levels in kidney. Data are averages from two experiments in which male 6-week old Balb/c mice were administered intraperitoneal injections of 350 nmol/kg of oligonucleotide, twice per week, over a period of two weeks (a total of four injections). Mice were sacrificed 48 hours following the last administration and evaluated for SGLT2 mRNA levels in kidney. SGLT2 mRNA levels were determined by quantitative real-time PCR analysis according to standard procedures, using two different PCR primer probe sets, primer probe set (PPS) 534 and PPS 553. SGLT2 mRNA levels were normalized to cyclophilin mRNA levels, which were also measured by quantitative real-time PCR.

[4] = primer probe set 534, normalized to cyclophilin
[5] = primer probe set 553, normalized to cyclophilin

Substance	% Inhibition Range [1]	% Inhib [1] [%]	% Inhibition ([2]; 5 nM) [%]	% Inhibition ([2]; 10 nM) [%]	% Inhibition ([2]; 20 nM) [%]	% Inhibition ([2]; 40 nM) [%]	% Inhibition ([2]; 80 nM) [%]	% Inhibition ([2]; 160 nM) [%]	% change in SGLT2 mRNA vs saline [3, 4] [% Saline]	% change in SGLT2 mRNA vs saline [3, 5] [% Saline]
400307 (antisense e[5mC]*eG*dG*d[5mC]*d[5mC]*dG*d[5mC]*dT*dG*dA*d[5mC]*d[5mC]*eA*e[5mC]) [compound 400307]	70-80%	76	35	39	45	56	92	93	–	–
370717 (antisense eT*dA*dG*d[5mC]*d[5mC]*dA*d[5mC]*d[5mC]*dA*dA*d[5mC]*eT) [compound 370717]	–	–	–	–	–	–	–	–	−84.4	−84.3
379688 (antisense e[5mC]*d[5mC]*dA*dA*dG*d[5mC]*d[5mC]*dA*d[5mC]*dT*dT*eG) [compound 379688]	–	–	–	–	–	–	–	–	−62.6	−70.4
400353 (antisense eA*e[5mC]*dA*d[5mC]*d[5mC]*d[5mC]*dT*d[5mC]*dA*d[5mC]*d[5mC]*d[5mC]*e[5mC]*e[5mC]) [compound 400353]	10-20%	19	15	27	23	43	54	48	–	–
379690 (antisense eA*d[5mC]*dA*dG*dG*dT*dA*dG*dA*dG*dG*e[5mC]) [compound 379690]	–	–	–	–	–	–	–	–	−18.9	−22.5
379702 (eG*d[5mC]*dA*d[5mC]*dA*d[5mC]*dA*dG*d[5mC]*dT*dG*e[5mC]) [compound 379702]	–	–	–	–	–	–	–	–	−87.8	−89.5
379699 (eG*dG*d[5mC]*dA*dT*dG*dA*dG*d[5mC]*dT*dT*e[5mC]) [compound 379699]	–	–	–	–	–	–	–	–	−83.5	−85.8
379697 (e[5mC]*dT*dG*dG*d[5mC]*dA*dT*dG*dA*d[5mC]*d[5mC]*eA; antisense) [compound 379697]	–	–	–	–	–	–	–	–	−32.0	−46.3
379695 (antisense eG*dG*dA*d[5mC]*dA*d[5mC]*d[5mC]*dG*dT*d[5mC]*dA*eG) [compound 379695]	–	–	–	–	–	–	–	–	−52.5	−64.1
379692 (antisense eT*dG*dT*dT*d[5mC]*d[5mC]*dA*dG*d[5mC]*d[5mC]*d[5mC]*eA) [compound 379692]	–	–	–	–	–	–	–	–	−88.1	−88.5
379694 (antisense eG*dA*d[5mC]*dG*dA*dA*dG*dG*dT*d[5mC]*dT*eG) [compound 379694]	–	–	–	–	–	–	–	–	−42.1	−54.4
379689 (antisense eA*dG*dA*dG*d[5mC]*dG*d[5mC]*dA*dT*dT*d[5mC]*e[5mC]) [compound 379689]	–	–	–	–	–	–	–	–	−17.5	−30.4
379703 (eG*d[5mC]*d[5mC]*dG*dG*dA*dG*dA*d[5mC]*dT*dG*eA; antisense) [compound 379703]	–	–	–	–	–	–	–	–	−44.2	−45.9
379693 (antisense e[5mC]*dA*dT*dG*dG*dT*dG*dA*dT*dG*d[5mC]*e[5mC]) [compound 379693]	–	–	–	–	–	–	–	–	−51.6	−59.9
379701 (e[5mC]*d[5mC]*dA*dT*dG*dG*dT*dG*dA*dA*dG*eA) [compound 379701]	–	–	–	–	–	–	–	–	−0.3	−11.9
400352 (antisense e[5mC]*eA*d[5mC]*d[5mC]*d[5mC]*dT*d[5mC]*dA*d[5mC]*d[5mC]*d[5mC]*d[5mC]*e[5mC]*eA) [compound 400352]	20-30%	29	7	16	40	44	63	64	–	–
379684 (antisense eT*dG*dT*d[5mC]*dA*dG*d[5mC]*dA*dG*dG*dA*eT) [compound 379684]	–	–	–	–	–	–	–	–	−45.0	−43.2
379691 (antisense eA*dG*dA*dT*d[5mC]*dT*dT*dG*dG*dT*dG*eA) [compound 379691]	–	–	–	–	–	–	–	–	−35.0	−48.6
379700 (e[5mC]*d[5mC]*dA*dG*d[5mC]*dA*dT*dG*dA*dG*dT*e[5mC]; antisense) [compound 379700]	–	–	–	–	–	–	–	–	−2.8	−16.4
379687 (antisense eG*dA*dT*dG*dT*dT*dG*d[5mC]*dT*dG*dG*e[5mC]) [compound 379687]	–	–	–	–	–	–	–	–	−47.1	−52.1
379698 (eG*d[5mC]*dA*dG*d[5mC]*d[5mC]*d[5mC]*dA*d[5mC]*d[5mC]*dT*e[5mC]) [compound 379698]	–	–	–	–	–	–	–	–	−11.8	−27.0
400331 (antisense eG*e[5mC]*d[5mC]*dA*d[5mC]*dG*dT*dG*dG*dG*d[5mC]*dA*eG*e[5mC]) [compound 400331]	30-40%	35	29	40	47	63	75	82	–	–
379685 (antisense eT*dG*dA*d[5mC]*d[5mC]*dA*dG*d[5mC]*dA*dG*dG*eA) [compound 379685]	–	–	–	–	–	–	–	–	−10.3	−20.5
400330 (antisense e[5mC]*e[5mC]*dA*d[5mC]*dG*dT*dG*dG*dG*d[5mC]*dA*dG*e[5mC]*eA) [compound 400330]	40-50%	43	8	32	40	69	82	71	–	–
400309 (antisense e[5mC]*e[5mC]*d[5mC]*dG*dG*d[5mC]*d[5mC]*dG*d[5mC]*dT*dG*dA*e[5mC]*e[5mC]) [compound 400309]	40-50%	44	49	23	38	12	72	78	–	–
400327 (antisense eG*eT*d[5mC]*d[5mC]*d[5mC]*d[5mC]*dA*dA*dA*dG*dT*d[5mC]*e[5mC]*e[5mC]) [compound 400327]	30-40%	36	5	37	23	49	43	55	–	–
400308 (antisense e[5mC]*e[5mC]*dG*dG*d[5mC]*d[5mC]*dG*d[5mC]*dT*dG*dA*d[5mC]*e[5mC]*eA) [compound 400308]	50-60%	55	31	10	26	40	77	86	–	–
